The source of these data is paper PMC9249674, “A small-molecule Skp1 inhibitor elicits cell death by p53-dependent mechanism” (iScience, 2022).

In general, EC50 refers to the midpoint of the concentration-response curve. The Ki is a measure of affinity in units of concentration, obtained from inhibition or displacement. A word on the IC50: it is the midpoint of a concentration-inhibition curve.

The target of one test is T1, Skp1^WT (Homo sapiens, UniProt P63208).
T1 construct: recombinantly purify intact (Skp1^WT) and truncate (ΔSkp1^1−140; lacking H8-helix) forms of Skp1; His6; made in house; host or cells: Escherichia coli BL21 (DE3)
Briefly: LC-MS/MS analysis of in vitro binding. The note with it: overnight incubation.

A further test relates to Huh-7. Briefly: Cell viability assay (Cell-Titer GLO). As to conditions: Homo sapiens, Liver cancer, 48 hrs, read-out: Anti-proliferative EC50. The class given is cell-based. On the procedure:
(§1) For cell viability, cells were seeded in 384 opaque-walled plates with clear bottoms at 300–500 cells per well (optimum density for growth) in a total volume of 20 μL of media. The media was according to culture conditions of each individual cell line (mentioned above). After 12 hrs, compounds were added in a total volume of 5 μL of media (two-fold diluted) to each well with final concentrations from 5 nM to 30 μM. The measurements were conducted 48 hrs after seeding of the cells. Then, 25 μL of Cell-Titer GLO reagent (Promega) was added, and luminescence was measured on an EnSpire multimode plate reader (PerkinElmer), according to the manufacturer’s instructions. The estimated in vitro half-maximal inhibitory concentration (EC50) values were calculated using GraphPad Prism® v6.0 (San Diego, CA) software. The cell viability for A549 cells was also performed for 72- and 96-hrs by using the same experimental conditions as described above.

The subject of a further test is H358. Briefly: Cell viability assay (Cell-Titer GLO). As to conditions: Homo sapiens, NCI-H358; H358^b; Lung cancer; p53 null or mutant cancer cell lines; 48 hrs; read-out: Anti-proliferative EC50. Type of test: cell-based. On the procedure:
as §1

The subject of a further test is MDA-MB-231. In words: Cell viability assay (Cell-Titer GLO). The class given is cell-based. As to conditions: Homo sapiens, Breast cancer, 48 hrs, read-out: Anti-proliferative EC50. As for the experimental part: as §1
The subject of another test is C4-2B. Briefly: Cell viability assay (Cell-Titer GLO). Type of test: cell-based. As to conditions: Prostate cancer, 48 hrs, read-out: Anti-proliferative EC50. On the procedure: as §1
The subject of the next test is MCF-7. Briefly: Cell viability assay (Cell-Titer GLO). Type of test: cell-based. The note with it: Homo sapiens, MCF7, Breast cancer, 48 hrs, read-out: Anti-proliferative EC50. On the procedure: as §1
Another test deals with NCI-N87. In words: Cell viability assay (Cell-Titer GLO). The note with it: Homo sapiens; NCI-N87^c; Gastric cancer; p53 null or mutant cancer cell lines; 48 hrs; read-out: Anti-proliferative EC50. Type of test: cell-based. On the procedure: as §1
The test system of the next test is HepG2. Briefly: Cell viability assay (Cell-Titer GLO). The class given is cell-based. The note with it: Homo sapiens, Liver cancer, 48 hrs, read-out: Anti-proliferative EC50. On the procedure: as §1
In another test the test system is U2OS. In words: Cell viability assay (Cell-Titer GLO). Type of test: cell-based. As to conditions: Homo sapiens, Osteosarcoma, 48 hrs, read-out: Anti-proliferative EC50. On the procedure: as §1
The next test deals with LNCaP. In words: Cell viability assay (Cell-Titer GLO). Type of test: cell-based. As to conditions: Homo sapiens, Prostate cancer, 48 hrs, read-out: Anti-proliferative EC50. As for the experimental part: as §1
The test system of a further test is βTC6. In words: Cell viability assay (Cell-Titer GLO). As to conditions: βTC6^a; Pancreatic insulinoma; 48 hrs; read-out: Anti-proliferative EC50. Type of test: cell-based. On the procedure:
as §1

Another test deals with HCT116. Briefly: Cell viability assay (Cell-Titer GLO). As to conditions: Homo sapiens, HCT-116, Colon carcinoma, 48 hrs, read-out: Anti-proliferative EC50. The class given is cell-based. As for the experimental part: as §1
The subject of another test is K562. In words: Cell viability assay (Cell-Titer GLO). Type of test: cell-based. The note with it: Homo sapiens, Leukemia, 48 hrs, read-out: Anti-proliferative EC50. On the procedure:
as §1

The subject of another test is Hs578T. Briefly: Cell viability assay (Cell-Titer GLO). The class given is cell-based. The note with it: Homo sapiens, Hs-578T, Breast cancer, 48 hrs, read-out: Anti-proliferative EC50. On the procedure: as §1
A further test has as its system Hela. In words: Cell viability assay (Cell-Titer GLO). The class given is cell-based. The note with it: Homo sapiens, Cervical cancer, 48 hrs, read-out: Anti-proliferative EC50. As for the experimental part:
as §1

The next test concerns 95D. Briefly: Cell viability assay (Cell-Titer GLO). Type of test: cell-based. The note with it: Lung cancer, 48 hrs, read-out: Anti-proliferative EC50. On the procedure: as §1
For a further test, the system named is 22RV1. In words: Cell viability assay (Cell-Titer GLO). The class given is cell-based. The note with it: Homo sapiens, Prostate cancer, 48 hrs, read-out: Anti-proliferative EC50. On the procedure:
as §1

For a further test, the target named is recombinant GST (Schistosoma japonicum, UniProt P08515). In words: LC-MS/MS analysis of in vitro binding, negative control protein.
In another test the test system is A549 cells. In words: Caspase-Glo 3/7 activity. The class given is cell-based, human. As to conditions: dose- and time-dependent treatment. As for the experimental part: The activities of caspase-3/7, −8 and −9 were measured using Caspase-Glo® 3/7,8, and 9 assay kits (Promega, Madison, WI, USA) according to the manufacturer’s protocol. Briefly, the cells were plated over-night in a white 384 well microplate, and then treated as indicated with Z0933M. After treatment, 25 μL of each caspase substrate was added and incubated at room temperature for 30 min. Upon activation of caspase in the apoptotic cells, the substrate will give a luminescence signal after cleavage of the aminoluciferin-labelled synthetic tetrapeptide. Luminescent signals were detected using an EnSpire multimode plate reader (PerkinElmer). For inhibitor interventions and Skp1 overexpression, the experiments were performed in 96 well format.

Test [1] addresses T2, Skp1-ΔSkp2^F−box-peptide interaction (Homo sapiens, UniProt P63208).
T2 construct: recombinantly purify intact (Skp1^WT) and truncate (ΔSkp1^1−140; lacking H8-helix) forms of Skp1; His6; made in house; host or cells: Escherichia coli BL21 (DE3)
Briefly: FP-based in vitro competition assay. Type of test: binding. As to conditions: for Ki: calculated from IC50 with Ki calculator. As for the experimental part:
FP measurements were performed using an EnVision multilabel Reader (Perkin Elmer). […] Lyophilized F-box-FAM peptide was initially dissolved in a Tris buffer (20 mM Tris-HCl pH 9.0, 150 mM NaCl, 2 mM DTT), and then a stock solution of 100 μM was prepared by subsequent dilutions in a FP buffer (20 mM Tris-HCl pH 8.0, 150 mM NaCl, 2 mM DTT, 5% (v/v) glycerol, 0.001% (v/v) Triton X-100). Specific controls groups included free F-box-FAM (tracer), bound F-box-FAM in the presence of protein (Skp1^WT or ΔSkp1^1−140), and FP buffer for every measurement, allowing accurate estimation of specific polarization.
The selected subset of compounds were initially assayed at final concentration of 200 μM. The compounds were incubated at room temperature with Skp1^WT for 1 hr, followed by the addition of the tracer. […] After incubation for another 2 hrs, FP signals was measured on an EnVision multilabel Reader. The FP response was measured in quadruplicates with controls including free F-box-FAM (tracer), bound Skp1^WT-F-box-FAM, and FP buffer. The resultant FP values were plotted as bar graphs using ORIGIN Lab software.
For gradient FP assay, protein samples were mixed with an appropriate concentrations of ligand over the range of several folds. […] The IC50 value of the compound in the gradient-concentration assay was determined with nonlinear regression and fitting using the following equation in GraphPad Prism® v6.0 (San Diego, CA). Y = Bottom + (Top – Bottom)/(1 + 10^X−LogIC50). […] In short, the relationship between the IC50 of the inhibitor and the Ki of the inhibitor depends on the KD of the fluorescent ligand and the concentration of the receptor.

Each structure is given as a SMILES string.

T2 sequence (P63208 whole entry, stated change not applied, the tested form may be a part): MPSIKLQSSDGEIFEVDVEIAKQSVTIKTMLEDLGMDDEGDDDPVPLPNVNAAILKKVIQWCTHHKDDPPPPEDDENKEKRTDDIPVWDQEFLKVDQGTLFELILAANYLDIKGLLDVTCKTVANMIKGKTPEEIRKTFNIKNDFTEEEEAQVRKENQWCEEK
recombinant GST, sequence (P08515 2-218 limits assumed): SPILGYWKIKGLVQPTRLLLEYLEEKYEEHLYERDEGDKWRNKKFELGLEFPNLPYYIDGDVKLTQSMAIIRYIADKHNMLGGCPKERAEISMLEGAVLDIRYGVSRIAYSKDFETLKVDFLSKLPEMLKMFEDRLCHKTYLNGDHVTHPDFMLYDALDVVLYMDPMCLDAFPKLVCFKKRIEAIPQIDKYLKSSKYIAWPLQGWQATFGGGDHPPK
T1 sequence (P63208 whole entry, the tested form may be a part): as the sequence (P63208 whole entry, stated change not applied, the tested form may be a part) above

`Nc1ccc(-c2nc3ccccc3c3[nH]c4ccccc4c23)cc1` [Z0933M]: on Skp1^WT, the “binding by LC-MS/MS” value is recorded as “robust binding”. Also, the EC50 in the test with Huh-7 is 3600 ± 810 nM; in the test on H358, 14900 ± 420 nM; with MDA-MB-231, 2900 ± 630 nM; in the test with C4-2B, 1900 ± 70 nM; in the test on MCF-7, 1460 ± 10 nM; in the test with NCI-N87 it was greater than 30000 nM. The EC50 in the test with HepG2 was 4080 ± 950 nM; with U2OS, 970 ± 90 nM; with LNCaP, 880 ± 30 nM; in the test with βTC6 it was 370 ± 7 nM; in the test with HCT116 it was 2820 ± 330 nM; with K562 it was 735 ± 30 nM. Moreover, the EC50 was 2490 ± 70 nM in the test on Hs578T, 360 ± 60 nM in the test on Hela, 3140 ± 260 nM with 95D and 1110 ± 100 nM in the test on 22RV1. The “presence in mass spectra (non-specific binding)” value on recombinant GST is “absent”. The “caspase 3/7 activity” value in the test with A549 cells is “dose- and time-dependently induced caspase 3/7 activity”. Also, the “inhibition of Skp1-ΔSkp2^F−box-peptide interaction” value in test [1] (200 μM compound, 25 μM Skp1^WT, 500 nM tracer) was “almost completely disrupted”. Further, the Ki was 231 ± 18 nM in test [1] and roughly 231 nM in test [1] (figure). This molecule had an IC50 in test [1] (dose-response FP, Skp1^WT 25 μM, tracer 500 nM) of roughly 25000 nM.
